These results are taken from patent publication US20250171426A1, “PYRIMIDINEDIONE-BASED COMPOUNDS AS AXL, C-MET, AND MER INHIBITORS AND METHODS OF USE THEREOF” (CMG Pharmaceutical Co., Ltd., priority 2022, published 2025).

SMILES strings stand for the structures.

Holding throughout (assay type): biochemical
Settings in all cases: 10 μM ATP, 60 min, ADP-GLO luminescence

One test concerns the target T1, MER (Homo sapiens, UniProt Q12866).
T1 sequence (Q12866 21-999): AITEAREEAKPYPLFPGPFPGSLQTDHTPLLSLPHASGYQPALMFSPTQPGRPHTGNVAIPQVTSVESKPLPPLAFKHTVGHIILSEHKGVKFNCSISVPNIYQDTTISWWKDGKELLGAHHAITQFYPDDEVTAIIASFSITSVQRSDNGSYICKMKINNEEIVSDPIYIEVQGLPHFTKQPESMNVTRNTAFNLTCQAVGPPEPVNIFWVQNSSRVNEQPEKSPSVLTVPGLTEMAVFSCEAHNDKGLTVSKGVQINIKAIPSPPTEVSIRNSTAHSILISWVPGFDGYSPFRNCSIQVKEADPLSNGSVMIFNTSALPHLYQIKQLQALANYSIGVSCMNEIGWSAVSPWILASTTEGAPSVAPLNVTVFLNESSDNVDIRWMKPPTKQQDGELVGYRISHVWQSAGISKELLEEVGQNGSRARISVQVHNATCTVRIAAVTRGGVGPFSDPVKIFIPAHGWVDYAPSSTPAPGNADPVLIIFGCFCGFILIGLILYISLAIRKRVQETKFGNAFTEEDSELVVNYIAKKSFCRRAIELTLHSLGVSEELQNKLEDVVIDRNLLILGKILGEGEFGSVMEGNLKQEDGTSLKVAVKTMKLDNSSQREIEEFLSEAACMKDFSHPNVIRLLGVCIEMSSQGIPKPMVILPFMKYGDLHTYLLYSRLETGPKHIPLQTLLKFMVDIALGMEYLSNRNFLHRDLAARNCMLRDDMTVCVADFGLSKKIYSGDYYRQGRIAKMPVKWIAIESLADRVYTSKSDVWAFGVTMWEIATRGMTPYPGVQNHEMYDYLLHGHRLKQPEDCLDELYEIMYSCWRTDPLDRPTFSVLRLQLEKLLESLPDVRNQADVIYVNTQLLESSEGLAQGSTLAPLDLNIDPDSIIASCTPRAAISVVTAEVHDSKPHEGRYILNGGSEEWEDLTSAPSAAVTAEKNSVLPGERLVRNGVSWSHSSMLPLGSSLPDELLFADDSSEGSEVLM
Description: Enzymatic assay (ADP-Glo kinase reaction), MER. The gist of the method: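 ADP-Glo luminescence assay of MER in tyrosine kinase buffer with 0.2 μg/μL poly(Glu4,Tyr1) substrate and 10 μM ATP. Serially diluted inhibitor reacted 60 min at room temperature. IC50 taken from luminescence after ADP-Glo and detection steps.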
A general note: In ADP-Glo the light output rises with the ADP produced.

In a further test the target is T2, AXL (Homo sapiens, UniProt P30530).
T2 sequence (P30530 26-894): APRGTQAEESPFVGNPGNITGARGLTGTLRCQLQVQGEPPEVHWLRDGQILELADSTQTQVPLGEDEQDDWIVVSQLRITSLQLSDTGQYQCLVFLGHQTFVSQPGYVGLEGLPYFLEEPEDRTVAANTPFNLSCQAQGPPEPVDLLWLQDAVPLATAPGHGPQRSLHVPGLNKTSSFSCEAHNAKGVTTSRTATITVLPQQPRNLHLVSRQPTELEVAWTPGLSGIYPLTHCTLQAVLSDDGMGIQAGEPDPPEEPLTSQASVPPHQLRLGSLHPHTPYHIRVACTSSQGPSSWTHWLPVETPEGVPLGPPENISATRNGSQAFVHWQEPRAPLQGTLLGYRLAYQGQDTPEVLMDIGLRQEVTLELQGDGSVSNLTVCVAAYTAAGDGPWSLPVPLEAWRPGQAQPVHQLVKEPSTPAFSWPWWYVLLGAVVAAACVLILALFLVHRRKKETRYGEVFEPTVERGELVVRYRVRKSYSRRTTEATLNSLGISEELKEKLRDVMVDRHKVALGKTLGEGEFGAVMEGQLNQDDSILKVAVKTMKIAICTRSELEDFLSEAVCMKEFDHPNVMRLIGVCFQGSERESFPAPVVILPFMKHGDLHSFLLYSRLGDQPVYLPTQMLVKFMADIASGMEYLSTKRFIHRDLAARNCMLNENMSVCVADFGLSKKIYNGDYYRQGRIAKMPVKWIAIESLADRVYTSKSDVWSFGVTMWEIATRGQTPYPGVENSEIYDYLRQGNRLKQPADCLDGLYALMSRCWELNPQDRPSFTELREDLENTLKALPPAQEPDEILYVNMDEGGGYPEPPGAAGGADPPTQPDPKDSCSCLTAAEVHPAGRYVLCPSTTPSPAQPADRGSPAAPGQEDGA
Description: Enzymatic assay (ADP-Glo kinase reaction), AXL. The method, boiled down:
(§1)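 For both AXL and c-MET, reactions in tyrosine kinase buffer used 0.2 μg/μL poly(Glu4,Tyr1) and 10 μM ATP with serially diluted inhibitor, 60 min at room temperature. ADP formed was read by ADP-Glo luminescence after 40 min reagent incubation.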

The target in a further test is c-MET (Homo sapiens, UniProt P08581). The experiment in a line: Enzymatic assay (ADP-Glo kinase reaction), c-MET. The gist of the method:
as §1

Sequence of c-MET (P08581 25-1390): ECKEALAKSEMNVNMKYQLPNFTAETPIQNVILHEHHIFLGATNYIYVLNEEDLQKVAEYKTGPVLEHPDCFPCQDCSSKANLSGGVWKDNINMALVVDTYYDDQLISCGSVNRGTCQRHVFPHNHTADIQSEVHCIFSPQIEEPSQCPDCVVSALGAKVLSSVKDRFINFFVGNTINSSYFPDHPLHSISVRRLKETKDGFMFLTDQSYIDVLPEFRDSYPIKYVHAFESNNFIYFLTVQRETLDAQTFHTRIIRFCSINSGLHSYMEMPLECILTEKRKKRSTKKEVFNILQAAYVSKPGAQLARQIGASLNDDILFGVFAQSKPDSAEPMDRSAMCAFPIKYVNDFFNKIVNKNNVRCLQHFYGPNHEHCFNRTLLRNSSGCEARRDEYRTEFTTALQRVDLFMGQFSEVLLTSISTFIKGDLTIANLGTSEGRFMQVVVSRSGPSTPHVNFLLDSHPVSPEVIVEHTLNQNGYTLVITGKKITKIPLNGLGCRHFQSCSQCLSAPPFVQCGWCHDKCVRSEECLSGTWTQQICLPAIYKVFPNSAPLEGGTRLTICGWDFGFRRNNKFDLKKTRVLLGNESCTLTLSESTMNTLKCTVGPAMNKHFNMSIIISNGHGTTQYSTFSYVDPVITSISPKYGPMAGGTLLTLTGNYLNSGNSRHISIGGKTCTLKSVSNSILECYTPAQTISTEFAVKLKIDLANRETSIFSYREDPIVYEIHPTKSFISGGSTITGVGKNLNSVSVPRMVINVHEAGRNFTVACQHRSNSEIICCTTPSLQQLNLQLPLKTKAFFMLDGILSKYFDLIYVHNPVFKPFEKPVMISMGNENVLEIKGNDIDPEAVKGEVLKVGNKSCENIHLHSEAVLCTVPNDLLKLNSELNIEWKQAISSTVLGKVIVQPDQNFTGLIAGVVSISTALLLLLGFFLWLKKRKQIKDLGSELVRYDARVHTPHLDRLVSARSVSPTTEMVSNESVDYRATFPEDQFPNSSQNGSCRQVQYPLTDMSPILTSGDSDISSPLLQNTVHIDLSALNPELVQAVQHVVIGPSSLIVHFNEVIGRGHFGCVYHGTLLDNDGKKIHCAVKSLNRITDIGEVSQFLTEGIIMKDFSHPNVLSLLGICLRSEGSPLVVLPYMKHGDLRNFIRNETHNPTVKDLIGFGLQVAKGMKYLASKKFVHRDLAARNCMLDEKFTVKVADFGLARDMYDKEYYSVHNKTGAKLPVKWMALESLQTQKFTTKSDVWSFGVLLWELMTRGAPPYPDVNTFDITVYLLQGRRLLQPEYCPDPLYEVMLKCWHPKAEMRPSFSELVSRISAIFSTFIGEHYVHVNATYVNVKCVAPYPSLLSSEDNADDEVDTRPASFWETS

What is called IC50 is the concentration that inhibits the measured activity by half. High values mean lower potency, low ones higher potency. Take `CN1CCC(CC#Cc2c(Oc3ccc(NC(=O)c4nn(C)c(=O)n(-c5ccc(F)cc5)c4=O)cc3F)ccnc2N)CC1` [Example 45, N-(4-((2-amino-3-(3-(1-methylpiperidin-4-yl)prop-1-yn-1-yl)pyridin-4-yl)oxy)-3-fluorophenyl)-4-(4-fluorophenyl)-2-methyl-3,5-dioxo-2,3,4,5-tetrahydro-1,2,4-triazine-6-carboxamide]: the IC50 against MER was less than 100 nM; at AXL, less than 100 nM; against c-MET it was less than 1000 nM.
Take `CN(C)C(=O)Cn1cc(C(=O)Nc2ccc(Oc3ccnc(N)c3C#CCN3CCOCC3)c(F)c2)c(=O)n(-c2ccc(F)cc2)c1=O` [Example 34, N-(4-((2-amino-3-(3-morpholinoprop-1-yn-1-yl)pyridin-4-yl)oxy)-3-fluorophenyl)-1-(2-(dimethylamino)-2-oxoethyl)-3-(4-fluorophenyl)-2,4-dioxo-1,2,3,4-tetrahydropyrimidine-5-carboxamide]: the 50% inhibitory concentration (IC50) at MER was less than 100 nM; against AXL, less than 1000 nM; against c-MET it was less than 10000 nM.
The corresponding values for `CC(C)N1CCC(CC#Cc2c(Oc3ccc(NC(=O)c4cn(C(C)C)c(=O)n(-c5ccc(F)cc5)c4=O)cc3F)ccnc2N)CC1` [Example 29, N-(4-(2-amino-3-(3-(1-isopropylpiperidin-4-yl)prop-1-ynyl)pyridin-4-yloxy)-3-fluorophenyl)-3-(4-fluorophenyl)-1-isopropyl-2,4-dioxo-1,2,3,4-tetrahydropyrimidine-5-carboxamide] are less than 10 nM, less than 10 nM and less than 10 nM.
The corresponding values for `Cc1nc(Cn2cc(C(=O)Nc3ccc(Oc4ccnc(N)c4C#CC(C)(C)N4CCN(C)CC4)c(F)c3)c(=O)n(-c3ccc(F)cc3)c2=O)cs1` [Example 42, N-(4-((2-amino-3-(3-methyl-3-(4-methylpiperazin-1-yl)but-1-yn-1-yl)pyridin-4-yl)oxy)-3-fluorophenyl)-3-(4-fluorophenyl)-1-((2-methylthiazol-4-yl)methyl)-2,4-dioxo-1,2,3,4-tetrahydropyrimidine-5-carboxamide] are less than 100 nM, less than 1000 nM and less than 100 nM.
The corresponding values for `CN(C)C(=O)Cn1cc(C(=O)Nc2ccc(Oc3ccnc(N)c3C#CCC3CCNCC3)c(F)c2)c(=O)n(-c2ccc(F)cc2)c1=O` [Example 38, N-(4-((2-amino-3-(3-(piperidin-4-yl)prop-1-yn-1-yl)pyridin-4-yl)oxy)-3-fluorophenyl)-1-(2-(dimethylamino)-2-oxoethyl)-3-(4-fluorophenyl)-2,4-dioxo-1,2,3,4-tetrahydropyrimidine-5-carboxamide] are less than 10 nM, less than 100 nM and less than 10 nM.
`Cc1nc(Cn2cc(C(=O)Nc3ccc(Oc4ccnc(N)c4C#CC(C)(C)N4CCNCC4)c(F)c3)c(=O)n(-c3ccc(F)cc3)c2=O)cs1` [Example 41, N-(4-((2-amino-3-(3-methyl-3-(piperazin-1-yl)but-1-yn-1-yl)pyridin-4-yl)oxy)-3-fluorophenyl)-3-(4-fluorophenyl)-1-((2-methylthiazol-4-yl)methyl)-2,4-dioxo-1,2,3,4-tetrahydropyrimidine-5-carboxamide]: the half-maximal inhibitory concentration (IC50) on MER, against AXL and against c-MET was less than 100 nM in each case.
Regarding `C=CCn1cc(C(=O)Nc2ccc(Oc3ccnc(N)c3C#CC(C)(C)N3CCN(C)CC3)c(F)c2)c(=O)n(CC=C)c1=O` [Example 68, 1,3-diallyl-N-(4-(2-amino-3-(3-methyl-3-(4-methylpiperazin-1-yl)but-1-ynyl)pyridin-4-yloxy)-3-fluorophenyl)-2,4-dioxo-1,2,3,4-tetrahydropyrimidine-5-carboxamide], the IC50 at MER is less than 100 nM; against AXL, less than 1000 nM; against c-MET, less than 1000 nM.
As for `CC(C)n1cc(C(=O)Nc2ccc(Oc3ccnc(N)c3C#CC(=O)N3CCOCC3)c(F)c2)c(=O)n(-c2ccc(F)cc2)c1=O` [Example 14, N-(4-(2-amino-3-(3-morpholino-3-oxoprop-1-ynyl)pyridin-4-yloxy)-3-fluorophenyl)-3-(4-fluorophenyl)-1-isopropyl-2,4-dioxo-1,2,3,4-tetrahydropyrimidine-5-carboxamide], the half-maximal inhibitory concentration (IC50) against MER, against AXL and against c-MET was less than 10 nM in each case.
Regarding `Cn1nc(C(=O)Nc2ccc(Oc3ccnc(N)c3C#CC(C)(C)N3CCOCC3)c(F)c2)c(=O)n(-c2ccc(F)cc2)c1=O` [Example 48, N-(4-(2-amino-3-(3-methyl-3-morpholinobut-1-ynyl)pyridin-4-yloxy)-3-fluorophenyl)-4-(4-fluorophenyl)-2-methyl-3,5-dioxo-2,3,4,5-tetrahydro-1,2,4-triazine-6-carboxamide], the 50% inhibitory concentration (IC50) is less than 1000 nM on MER, less than 100 nM on AXL and less than 100 nM against c-MET.
On to `Nc1nccc(Oc2ccc(NC(=O)c3c[nH]c(=O)n(-c4ccc(F)cc4)c3=O)cc2F)c1C#CCN1CCOCC1` [Example 51, N-(4-(2-amino-3-(3-morpholinoprop-1-ynyl)pyridin-4-yloxy)-3-fluorophenyl)-3-(4-fluorophenyl)-2,4-dioxo-1,2,3,4-tetrahydropyrimidine-5-carboxamide], for which the 50% inhibitory concentration (IC50) against MER, against AXL and against c-MET was less than 100 nM in each case.
With `CC(C)n1cc(C(=O)Nc2ccc(Oc3ccnc(N)c3C#CCN3CCN(C)CC3)c(F)c2)c(=O)n(-c2ccc(F)cc2)c1=O` [Example 26, N-(4-(2-amino-3-(3-(4-methylpiperazin-1-yl)prop-1-ynyl)pyridine-4-yloxy)-3-fluorophenyl)-3-(4-fluorophenyl)-1-isopropyl-2,4-dioxo-1,2,3,4-tetrahydropyrimidine-5-carboxamide], the IC50 at MER, against AXL and against c-MET was less than 10 nM throughout.
`Cc1nc(Cn2cc(C(=O)Nc3ccc(Oc4ccnc(N)c4C#CC(C)(C)N4CCOCC4)c(F)c3)c(=O)n(-c3ccc(F)cc3)c2=O)cs1` [Example 39, N-(4-((2-amino-3-(3-methyl-3-morpholinobut-1-yn-1-yl)pyridin-4-yl)oxy)-3-fluorophenyl)-3-(4-fluorophenyl)-1-((2-methylthiazol-4-yl)methyl)-2,4-dioxo-1,2,3,4-tetrahydropyrimidine-5-carboxamide]: the half-inhibitory concentration (IC50) against MER, against AXL and against c-MET was less than 100 nM each time.
As to `CN1CCC(CC#Cc2c(Oc3ccc(NC(=O)c4c[nH]c(=O)n(-c5ccc(F)cc5)c4=O)cc3F)ccnc2N)CC1` [Example 54, N-(4-(2-amino-3-(3-(1-methylpiperidin-4-yl)prop-1-ynyl)pyridin-4-yloxy)-3-fluorophenyl)-3-(4-fluorophenyl)-2,4-dioxo-1,2,3,4-tetrahydropyrimidine-5-carboxamide], the values for the IC50 on MER, on AXL and at c-MET were less than 100 nM, less than 10 nM and less than 10 nM, respectively.
